This note sets out measurements from patent US10479986B2, “Nucleic acid constructs and methods for labeling and detecting nucleosomal DNA modifications” (THE BROAD INSTITUTE, INC., priority 2016, dated 2019).

Each structure is given as a SMILES string.

Experiment [1] has as its system H3K27ac levels in K562 cells. The experiment can be described thus: Western blot of H3K27ac levels in treated K562 cells. It counts as cell-based, human. To be noted: 48 hr treatment, vs DMSO control. The source says:
(§1) FIG. 13 is a western blot showing H3K27ac and H3K27me3 levels in K562 cells following treatment with the p300 inhibitor C646 or the EZH2 inhibitor […] (compared to a DMSO control). The total H3 is shown as loading control.
Data are typically normalized based on read numbers (“reads per million” or RPM). This presents complications when comparing between samples. To address this shortcoming, exogenous spike-in controls or semisynthetic standards were recently introduced (Bonhoure et al., 2014; Grzybowski et al., 2015; Orlando et al., 2014). The methods disclosed herein were assessed to determine whether the consistency of pooled sample processing could allow the capture of global modification levels without spike-in controls. To this end, an additional IP was included with antibody to total H3, which was used as a normalization factor for the modifications (FIG. 12). The approach for measuring global changes was tested using small molecule inhibitors. K562 cells were treated with the p300 inhibitor C646 or the EZH2 inhibitor GSK126 (Ferrari et al., 2013; McCabe et al., 2012a). Western blots confirmed that H3K27ac levels were reduced by the acetyltransferase inhibitor C646, […] (FIG. 13). […] After sequencing, the number of reads for H3K27ac and H3K27me3 were normalized to the number of reads for total H3.
(In general: Immunoblotting shows a protein as a band on a membrane.)

The subject of experiment [2] is H3K27me3 levels in K562 cells. The experiment can be described thus: Western blot of H3K27me3 levels in treated K562 cells (acid extracted histones). It is filed as cell-based, human. To be noted: 48 hr treatment.
Source text: as §1
Data are typically normalized based on read numbers (“reads per million” or RPM). This presents complications when comparing between samples. To address this shortcoming, exogenous spike-in controls or semisynthetic standards were recently introduced (Bonhoure et al., 2014; Grzybowski et al., 2015; Orlando et al., 2014). The methods disclosed herein were assessed to determine whether the consistency of pooled sample processing could allow the capture of global modification levels without spike-in controls. […] After sequencing, the number of reads for H3K27ac and H3K27me3 were normalized to the number of reads for total H3.
It is noted the methods disclosed herein are preferential to open regions, as these are more sensitive to MNase digestion. This is evident in the relatively higher proportion of H3 reads that align to euchromatic regions (2-fold enrichment; compare to 1.2-fold enrichment in conventional ChIP-seq). […] To test this, Western blots to quantify H3K27me3 levels were used in MNase digested chromatin from K562 cells treated with GSK126.

Experiment [3] relates to H3K27ac levels in K562 cells. The experiment can be described thus: Multiplexed barcoded ChIP-seq (Mint-ChIP), H3K27ac reads normalized to total H3 reads. To be noted: 48 hours treatment. It is filed as cell-based, human. The source says:
(§2) FIG. 12 is a schematic showing an example method for quantitatively normalizing sequencing data results, in accordance with certain example embodiments. The control or drug treated cells are indexed, pooled, and then split for parallel ChIP assays. The ratio between H3K27me3 reads and H3 reads is used to compare global H3K27me3 levels between sample and normalized corresponding profiles.
(§3) FIG. 14 is a set of bar graphs showing global modification levels inferred from Western blot (top) or in accordance with certain example embodiments (bottom). The respective methods were applied in parallel to the same sample of […] cells treated for 48 hours with the indicated inhibitors. The data are shown as a mean±SD of n=3 independent experiments (symbols indicate values from independent experiments).
(§4) First, procedures for simultaneously lysing and digesting chromatin from small numbers of K562 cells were modified. […]
(§5) Algorithms were developed to process Mint-ChIP seq results. First, the seq reads are de-multiplexed by index #2 to yield separate read files for each ChIP assay. Each of these read files is then further de-multiplexed by index #1 (T7-adapter barcode) to yield separate files for each sample. […] More than 90% of reads were successfully assigned to one of the T7-adapter barcodes (FIG. 5). […]

Experiment [4] relates to H3K27me3 levels in K562 cells. The experiment can be described thus: Multiplexed barcoded ChIP-seq (Mint-ChIP), H3K27me3 reads normalized to total H3 reads. It counts as cell-based, human. To be noted: 48 hours treatment.
Source text: as §2, §3, §4, §5

In experiment [5] the test system is H3K27me3 levels in K562 cells. As to the kind of experiment: Western blot of H3K27me3 in MNase digested chromatin. It counts as cell-based, human. To be noted: 48 hr of treatment. The source says: It is noted the methods disclosed herein are preferential to open regions, as these are more sensitive to MNase digestion. This is evident in the relatively higher proportion of H3 reads that align to euchromatic regions (2-fold enrichment; compare to 1.2-fold enrichment in conventional ChIP-seq). These ratios are small relative to enrichments in ChIP-seq peaks, which range from 5- to 100-fold. However, they could account for increased sensitivity to early changes in H3K27me3 if these were also preferential to euchromatin. To test this, Western blots to quantify H3K27me3 levels were used in MNase digested chromatin from K562 cells treated with GSK126.

Experiment [6] concerns H3K27me3 levels in Pfeiffer cells. As to the kind of experiment: Mint-ChIP global H3K27me3 levels (ratio to H3 reads) after GSK126. It is filed as cell-based. To be noted: after 72 hr. As to the method: (§6) FIG. 20 provides a set of heat maps comparing H3K27me3 (A) and H3K27ac (B) levels in different cell lines treated with GSK126, as quantified in accordance with certain example embodiments. The experiments were performed using two different MNase concentrations.
(§7) The methods disclosed herein were used to quantitatively compare H3K27me3 and H3K27ac landscapes in these three cell lines. First, the global modification levels based on the ratio of H3K27me3 (or H3K27ac) reads to H3 reads were quantified. H3K27me3 levels were 5.1-fold greater in Pfeiffer than the other cell lines, consistent with its EZH2 activating mutation (FIG. 20).
(§8) The respective mutant lines were also treated with the EZH2 inhibitor GSK126, which reduced global H3K27me3 levels (Pfeiffer: 3.4-fold; SKM-1: 3.8-fold; and Toledo: 1.4-fold after 72 hr). Pfeiffer cells, which had the largest absolute decrease in H3K27me3, were the most sensitive to GSK126 treatment (Pfeiffer: 56±11% cell death after 3 days; SKM-1: 15±10%; and Toledo: 2±15%; FIG. 24) (McCabe et al., 2012a). H3K27me3 peaks were called in the naive and drug treated cell lines. Although treatment-associated changes in H3K27me3 are masked by conventional normalization, these changes are readily evident using the quantitative normalization inherent to the methods disclosed herein (FIG. 23). Thus, the methods disclosed herein can quantify differences in global chromatin landscapes of cancer cells representing different genotypes or drug treatments.

The subject of experiment [7] is H3K27me3 levels in SKM-1 cells. The experiment is described as above. It counts as cell-based. Conditions: SKM-1, after 72 hr. How it is done: as §6, §7, §8
The test system of experiment [8] is H3K27me3 levels in Toledo cells. Described as above. It counts as cell-based. Conditions: after 72 hr. How it is done:
as §6, §7, §8

In experiment [9] the test system is Pfeiffer cells. As to the kind of experiment: Viable cell counts following GSK126 treatment. It counts as cell-based. Conditions: after 3 days. How it is done: (§9) FIG. 24 provides a set of bar plots depicting viable cell counts following 72 hour GSK126 treatment of Pfeiffer, SKM-1, and Toledo. The data are shown as mean±SD of technical triplicates×n=2 independent experiments (*p<0.05, **p<0.01, and ****p<0.0001).
as §8

The subject of experiment [10] is SKM-1 cells. As to the kind of experiment: Viable cell counts following GSK126 treatment. It is filed as cell-based. Conditions: SKM-1, after 3 days. How it is done: as §9, §8
For experiment [11], the system named is Toledo cells. As to the kind of experiment: Viable cell counts following GSK126 treatment. It is filed as cell-based. Conditions: after 3 days. As to the method:
as §9, §8

Experiment [12] concerns H3K4me3 levels in K562 cells. The experiment can be described thus: Western blot of H3K4me3 levels in treated K562 cells. It counts as cell-based, human. Conditions: 96 hr treatment, vs DMSO. As to the method:
FIG. 16 are Western blots showing increased H3K4me3 levels in K562 cells following treatment with the demethylase inhibitor KDM5-C70. The total H3 is shown as loading control and n=3 experiments are shown.
(§10) (Labelle et al., 2014). The chromatin of K562 cells treated with DMSO or KDM5-C70 for 96 hr were barcoded and pooled. H3K4me3 and total H3 were then assayed. After sequencing, normalization of the number of H3K4me3 reads to the number of H3 reads reflected global modification levels and was consistent between experiments and also with Western blot analysis (FIG. 16 and FIG. 17). […] This effect was obscured when the data were subjected to conventional RPM normalization (FIG. 18).

The subject of experiment [13] is H3K4me3 in K562 cells. As to the kind of experiment: Multiplexed barcoded ChIP-seq (Mint-ChIP), H3K4me3 profiles with quantitative normalization to total H3. It is filed as cell-based, human. Conditions: 96 hr treatment, vs DMSO.
Source text: FIG. 17 is a set of graphs showing global H3K4me3 levels inferred in accordance with certain example embodiments. The data are shown as ±SD of four replicates n=3 experiments are shown.
FIG. 18 is a graph showing H3K4me3 profiles scaled by conventional or quantitative normalization.
FIG. 19 provides a composite plot depicting average H3K4me3 in K562 cells treated with DMSO or KDM5-C70 (A) with 10 kb regions surrounding the centers of 36,875 peaks that are shown; a bar blot showing the fraction of peaks within size windows (B); and a Venn diagram showing the number of peaks detected in K562 cells treated with DMSO or KDM5-70 (C). The data were generated in accordance with certain example embodiments.
as §10

Consider `CC1=NN(c2ccc(C(=O)O)cc2)C(=O)/C1=C\c1ccc(-c2cc(C)c(C)cc2[N+](=O)[O-])o1` [C646], for which the “H3K27ac levels (Western blot)” value in [1] was “reduced”. In addition, the “H3K27me3 levels (Western blot)” value in experiment [2] is reported as “did not detect significant changes”. In experiment [3], the “ratio between H3K27ac reads and total H3 reads” value is “decreased”.
In the case of `CC[C@H](C)n1cc(C)c2c(C(=O)NCc3c(C)cc(C)[nH]c3=O)cc(-c3ccc(N4CCNCC4)nc3)cc21` [GSK126], in experiment [1], the “H3K27ac levels (Western blot)” value was “increased”. Besides, the “H3K27me3 levels (Western blot)” value in experiment [2] is “did not detect significant changes”. Also, the “ratio between H3K27ac reads and total H3 reads” value in experiment [3] is “increased”. Also, the “H3K27me3 levels (H3K27me3 reads normalized to total H3 reads)” value in [4] is reported as “consistent reduction”. Further, in [5], the “H3K27me3 levels (Western blot, MNase digested chromatin)” value is on record as “Consistent reductions”. Moreover, the “reduction of global H3K27me3 levels” value in experiment [6] amounted to 3.4 fold; in experiment [7], 3.8 fold; in experiment [8] it was 1.4 fold. The results for the cell death in [9], in experiment [10] and in experiment [11] were 56±11%, 15±10% and 2±15%, respectively.
In the case of `CCOC(=O)c1ccnc(CNCC(=O)N(CC)CCN(C)C)c1` [KDM5-C70], in experiment [12], the “H3K4me3 levels (Western blot)” value was “increased”. The “H3K4me3 coverage, domains and peaks” value in experiment [13] was “increases H3K4me3 coverage and widens existing domains, while also generating new H3K4me3 peaks”. In addition, in [13] (quantitative normalization), the “H3K4me3 peak intensity (tracks scaled by inferred global levels)” value is “increased peak intensity”.
